“Also recorded” adds a separate entry of the source.
Tested on: drug-naïve STZ-diabetic rats
Test: von Frey paw withdrawal thresholds, drug-naïve STZ-diabetic rats, Example 2
Assay type: in vivo, rat
Details: for Mean duration of action / Time of peak anti-allodynia post-dosing: 7th twice-daily dose; for Mean (±SEM) AUC (area under the normalized PWT versus time curve) / Mean (±SEM) Peak response (PWT) / Mean (±SEM) % MPR at peak: after 7th consecutive twice-daily dose; for Mean (±SEM) % MPR at peak: 100% MPR = full reversal of tactile allodynia
Experimental: Experimental Animals Ethical approval for this study was obtained from the Animal Experimentation Ethics Committee of The University of Queensland. Adult male Sprague-Dawley (SD) rats (222±4 g) were used for this study. Rats were housed in a temperature controlled room (21+2.0 C) with a 12/12 hour light/dark cycle. Food and water were available ad libitum. Initiation of drug administration occurred at 8-11 weeks post-STZ administration for rats in Experiment 1 (PCT-001) and at 10-12 weeks post-STZ administration for rats in Experiment 2 (PCT-007).
Test Article Tranilast was supplied by the Sponsor and stored at −4° C. until use. Gabapentin (100 mg/kg, dissolved in water for injection) was utilized as the positive control for this study.
Test Article and Vehicle Preparation Test article formulations were prepared freshly on the day of administration by weighing the appropriate amount of bulk powder and suspending it in the required volume of vehicle. Carboxymethyl cellulose ((CMC) 0.5% in water for injection) was utilized as the vehicle for this study.
Test Article Administration. […] The maximum oral gavage volume administered in this study was […]. 4.4
STZ-Diabetic Rat Model of Painful Diabetic Neuropathy. Painful diabetic neuropathy is a common long-term complication of diabetes in humans that develops as a result of a sustained biochemical nerve injury. […] Following the induction of diabetes with intravenous STZ at 70-80 mg/kg, it generally takes 6-8 wks for tactile allodynia, the defining symptom of PDN, to fully develop in both rat hindpaws.
Induction of STZ-Diabetes in Rats. On day 0, rats were anaesthetized with 3% isoflurane:97% O2 and a short polyethylene cannula (0.5 mm ID, 0.8 mm OD) was inserted into the jugular vein to facilitate the intravenous (i.v.) administration of a single dose of streptozotocin (STZ: 70-80 mg/kg). After STZ injection, the cannula was removed and the jugular vein was tied off and the wound was closed. Rats received subcutaneous benzylpenicillin (60 mg) prior to surgery to prevent infection and were kept warm during surgical recovery. Rats were housed singly prior to further experimentation and were monitored daily from the time of STZ administration with regard to general health and well-being.
Von Frey Assessment of Paw Withdrawal Thresholds. Calibrated von Frey filaments were used to determine the lowest mechanical threshold required to evoke a brisk paw withdrawal reflex in the rat hindpaws. Briefly, rats were transferred individually to wire mesh testing cages (20 cm×20 cm×20 cm) and allowed to acclimatize for approximately 10-20 min prior to von Frey testing. Commencing with the von Frey filament that produced the 6 g force, the filament was applied to the plantar surface of the hindpaw until the filament buckled slightly. Absence of a response after 3 s prompted use of the next filament of increasing weight. A withdrawal response within 3 s prompted use of the next filament of decreasing weight. Filaments used produced buckling weights of 2, 4, 6, 8, 10, 12, 14, 16, 18 and 20 g. […] Tactile allodynia is regarded as being fully developed when von Frey PWTs in the injured hindpaws are <6 g.
Restoring von-Frey PWTs in the hindpaws from <6 g to pre-STZ surgery levels (12±2 g) is the treatment goal representing full reversal of tactile allodynia. If drug treatment increases PWTs above pre-surgical baseline values (i.e. >12±2 g), such a response is classified as antinociception. Before administration of STZ, baseline von Frey measurements were assessed. Following STZ administration, baseline PWTs were assessed in the hindpaws at week 8-11 to confirm the development of diabetes-induced tactile allodynia.
Dose-Response Curve for Tranilast in Drug-Naive STZ-Diabetic Rats. […]

[1] = tranilast 100, 200, 300 and 400 mg/kg oral, 7 consecutive twice-daily doses

SMILES: COc1ccc(/C=C/C(=O)Nc2ccccc2C(=O)O)cc1OC [Tranilast, 2-[[3-(3,4-dimethoxyphenyl)-1-oxo-2-propenyl]amino]benzoic acid]
- Mean (±SEM) von Frey Paw Withdrawal threshold following the 7th consecutive dose (tranilast 300 mg/kg oral twice-daily, time 0.5 h): 8.6 ± 1.5 g
- Mean (±SEM) von Frey Paw Withdrawal threshold following the 7th consecutive dose (tranilast 300 mg/kg oral twice-daily, time 0.75 h): 11 ± 1.6 g
- Mean (±SEM) von Frey Paw Withdrawal threshold following the 7th consecutive dose (tranilast 300 mg/kg oral twice-daily, time 1 h): 12.2 ± 1.3 g
- Mean (±SEM) von Frey Paw Withdrawal threshold following the 7th consecutive dose (tranilast 300 mg/kg oral twice-daily, time 1.25 h): 13 ± 1.3 g
- Mean (±SEM) von Frey Paw Withdrawal threshold following the 7th consecutive dose (tranilast 300 mg/kg oral twice-daily, time 1.25 h, listed as tranilast): 13.0 (±1.3) g
- Mean (±SEM) von Frey Paw Withdrawal threshold following the 7th consecutive dose (tranilast 300 mg/kg oral twice-daily, time 1.5 h): 12.4 ± 1.1 g
- Mean (±SEM) von Frey Paw Withdrawal threshold following the 7th consecutive dose (tranilast 300 mg/kg oral twice-daily, time 2 h): 12.0 ± 2.2 g
- Mean (±SEM) von Frey Paw Withdrawal threshold following the 7th consecutive dose (tranilast 300 mg/kg oral twice-daily, time 3 h): 9.0 ± 2.7 g
- Relief of tactile allodynia in the hindpaws (tranilast 300 mg/kg oral, 7 consecutive twice-daily doses (n=5)): significant relief of tactile allodynia
- AUC of anti-allodynic response versus time compared with vehicle (tranilast 300 mg/kg oral, 7th consecutive twice-daily dose): significantly greater (p<0.05)
- Mean duration of action (tranilast 300 mg/kg oral): > 3 h
- Time of peak anti-allodynia post-dosing (tranilast 300 mg/kg oral): 1 to 1.5 h
- Mean (±SEM) AUC (area under the normalized PWT versus time curve) (tranilast 300 mg/kg oral): 17.2 ± 3.3
- Mean (±SEM) Peak response (PWT) (tranilast 300 mg/kg oral): 13.0 ± 1.3
- Mean (±SEM) % MPR at peak (tranilast 300 mg/kg oral): 147.8 ± 23.6%
- Mean (±SEM) von Frey Paw Withdrawal threshold assessed prior to dose (tranilast 400 mg/kg oral twice-daily, prior to dose 1): 5.1 ± 0.5 g
- Mean (±SEM) von Frey Paw Withdrawal threshold assessed prior to dose (tranilast 400 mg/kg oral twice-daily, prior to dose 3): 5.1 ± 0.5 g
- Mean (±SEM) von Frey Paw Withdrawal threshold assessed prior to dose (tranilast 400 mg/kg oral twice-daily, prior to dose 5): 4.8 ± 0.5 g
- Mean (±SEM) von Frey Paw Withdrawal threshold assessed prior to dose (tranilast 400 mg/kg oral twice-daily, prior to dose 7): 5.2 ± 0.5 g
- Mean (±SEM) von Frey Paw Withdrawal threshold following the 7th consecutive dose (tranilast 400 mg/kg oral twice-daily, time 0 h (pre-dose)): 5.2 ± 0.4 g
- Mean (±SEM) von Frey Paw Withdrawal threshold following the 7th consecutive dose (tranilast 400 mg/kg oral twice-daily, time 0 h (pre-dose), listed as tranilast): 5.2 (±0.4) g
- Mean (±SEM) von Frey Paw Withdrawal threshold following the 7th consecutive dose (tranilast 400 mg/kg oral twice-daily, time 0.15 h): 6.0 ± 0 g
- Mean (±SEM) von Frey Paw Withdrawal threshold following the 7th consecutive dose (tranilast 400 mg/kg oral twice-daily, time 0.5 h): 6.25 ± 0.2 g
- Mean (±SEM) von Frey Paw Withdrawal threshold following the 7th consecutive dose (tranilast 400 mg/kg oral twice-daily, time 0.75 h): 7.5 ± 0.5 g
- Mean (±SEM) von Frey Paw Withdrawal threshold following the 7th consecutive dose (tranilast 400 mg/kg oral twice-daily, time 1 h): 8.75 ± 0.25 g
- Mean (±SEM) von Frey Paw Withdrawal threshold following the 7th consecutive dose (tranilast 400 mg/kg oral twice-daily, time 1 h, listed as tranilast): 8.8 (±0.3) g
- Mean (±SEM) von Frey Paw Withdrawal threshold following the 7th consecutive dose (tranilast 400 mg/kg oral twice-daily, time 1.25 h): 7.8 ± 0.25 g
- Mean (±SEM) von Frey Paw Withdrawal threshold following the 7th consecutive dose (tranilast 400 mg/kg oral twice-daily, time 1.5 h): 8.0 ± 0 g
- Mean (±SEM) von Frey Paw Withdrawal threshold following the 7th consecutive dose (tranilast 400 mg/kg oral twice-daily, time 2 h): 7.8 ± 0.25 g
- Mean (±SEM) von Frey Paw Withdrawal threshold following the 7th consecutive dose (tranilast 400 mg/kg oral twice-daily, time 3 h): 6.5 ± 0.3 g
- Mean duration of action (tranilast 400 mg/kg oral): 3 h
- Time of peak anti-allodynia post-dosing (tranilast 400 mg/kg oral): 0.75 to 1.25 h
- Mean (±SEM) AUC (area under the normalized PWT versus time curve) (tranilast 400 mg/kg oral): 6.3 ± 0.9
- Mean (±SEM) Peak response (PWT) (tranilast 400 mg/kg oral): 8.75 ± 0.25
- Mean (±SEM) % MPR at peak (tranilast 400 mg/kg oral): 62.2 ± 4.2%
- Peak anti-allodynic response compared with vehicle [1]: significantly (p<0.05) greater
- Relief of tactile allodynia in the hindpaws [1]: significant relief of tactile allodynia; also recorded: anti-allodynia was produced
- % MPR at the time of peak effect compared with vehicle (tranilast 100, 200, 300 and 400 mg/kg oral, 7th consecutive twice-daily dose): significantly greater than that for vehicle
- AUC of anti-allodynic response versus time compared with vehicle (tranilast 100, 200 and 400 mg/kg oral, 7th consecutive twice-daily dose): did not reach statistical significance
- Dosing regimen producing the maximum anti-allodynic effect (tranilast 100-400 mg/kg oral, 7 consecutive twice-daily doses): maximum anti-allodynic effect appeared to be produced by the 300 mg/kg dosing regimen
- Baseline PWT thresholds assessed prior to dose 1, 3, 5 and 7 (tranilast at all doses (100-400 mg/kg oral twice-daily)): not significantly different

Source: patent US20090042987A1, “TREATMENT OF NEUROPATHIC PAIN” (priority 2007, published 2009)
